Here are results for 3 compounds from ChEMBL document CHEMBL5131430, “Free radical scavenging activities of verbascoside and isoverbascoside from the leaves of Odontonema strictum (Acanthaceae)” (Bioorg Med Chem Lett, 2022).

Values after ≈ are worked out from the molar mass of the structure shown.

A short description of test [1]: Antioxidant activity assessed as DPPH radical scavenging activity. Format: functional. On the technique in general: Loss of DPPH colour is used to gauge radical scavenging.
Test [2] can be described thus: Antioxidant activity assessed as hydrogen peroxide scavenging activity. Format: functional.

One may read the IC50 as the concentration that inhibits the measured activity by half.

Turning to `O=C1O[C@H]([C@@H](O)CO)C(O)=C1O` [ASCORBIC ACID], the IC50 in test [1] turned out to be 0.05 µg/mL (≈ 0.284 µM); in test [2], 4.1 µg/mL (≈ 23.3 µM).

As to `C[C@@H]1O[C@@H](O[C@@H]2[C@@H](O)[C@H](OCCc3ccc(O)c(O)c3)O[C@H](COC(=O)/C=C/c3ccc(O)c(O)c3)[C@H]2O)[C@H](O)[C@H](O)[C@H]1O` [ISOACTEOSIDE], the IC50 in test [1] was determined as 0.16 µg/mL (≈ 0.256 µM); in test [2] it was 3 µg/mL (≈ 4.8 µM).

For the compound `C[C@@H]1O[C@@H](O[C@@H]2[C@@H](O)[C@H](OCCc3ccc(O)c(O)c3)O[C@H](CO)[C@H]2OC(=O)/C=C/c2ccc(O)c(O)c2)[C@H](O)[C@H](O)[C@H]1O` [ACETOSIDE], the IC50 stood at 0.09 µg/mL (≈ 0.144 µM) in test [1] and 2.6 µg/mL (≈ 4.16 µM) in test [2].
